The values that follow come from ChEMBL document CHEMBL2331479, “Superacid synthesis of halogen containing N-substituted-4-aminobenzene sulfonamides: new selective tumor-associated carbonic anhydrase inhibitors” (Bioorg Med Chem, 2013).

The term Ki denotes the equilibrium dissociation constant of an inhibitor or competing ligand from its target.

Chain of Carbonic anhydrase 12 (O43570 whole entry, the tested form may be a part): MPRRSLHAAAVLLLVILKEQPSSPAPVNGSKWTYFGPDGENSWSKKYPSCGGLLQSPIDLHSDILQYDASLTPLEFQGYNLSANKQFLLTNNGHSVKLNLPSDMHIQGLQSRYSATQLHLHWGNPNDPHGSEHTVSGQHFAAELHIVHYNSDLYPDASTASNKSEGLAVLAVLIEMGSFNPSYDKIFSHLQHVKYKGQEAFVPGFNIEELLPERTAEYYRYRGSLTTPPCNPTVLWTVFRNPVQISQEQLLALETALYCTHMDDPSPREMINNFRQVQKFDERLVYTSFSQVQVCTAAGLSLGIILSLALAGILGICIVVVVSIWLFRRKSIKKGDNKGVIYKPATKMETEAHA

For one experiment, the species on record is Homo sapiens. Nature of the experiment: Selectivity ratio of Ki for human carbonic anhydrase 2 to Ki for human carbonic anhydrase 9.
With `C=C(Cl)CN(CC(=C)Cl)S(=O)(=O)c1ccc(N)cc1`, the Ratio Ki was determined as 68.2.
Still for that read-out and setting: with `Nc1ccc(S(=O)(=O)NCCC(F)F)cc1` the figure was 2; with `CC(F)(F)CNS(=O)(=O)c1ccc(N)cc1`, 1.8; with `Nc1ccc(S(=O)(=O)NCCC(F)Cl)cc1` (configuration not stated), 0.3.
Consider `C=CCNc1ccc(S(N)(=O)=O)cc1`, for which the Ratio Ki is 1.7.
For `CC(C)(F)CNS(=O)(=O)c1ccc(N)cc1`, the Ratio Ki is 0.9.
Same read-out and setting: to `C=C(C)CNS(=O)(=O)c1ccc(N)cc1` belongs 1.4; to `CC(=O)Nc1ccc(S(=O)(=O)NCC(C)F)cc1` (configuration not stated), 1; to `CC(F)CNc1ccc(S(N)(=O)=O)cc1` (configuration not stated), 1.3.
Same read-out and setting: to `CCCNS(=O)(=O)c1ccc(N)cc1` belongs 1.7; to `NS(=O)(=O)c1ccc(Nc2nc(Cl)nc(NCCO)n2)cc1`, 23.1.
For `NS(=O)(=O)c1ccc2c(c1)CCCN2`, the Ratio Ki came to 1.6.
Same read-out and setting: with `CC1CN(C)S(=O)(=O)c2ccc(N)cc21` (configuration not stated) the figure was 3.2; with `C=C(Cl)CNS(=O)(=O)c1ccc(N)cc1`, 57.5; with `CC(F)(Cl)CNS(=O)(=O)c1ccc(N)cc1` (configuration not stated), 0.6.

For a further experiment, the species on record is Homo sapiens. Nature of the experiment: Selectivity ratio of Ki for human carbonic anhydrase 1 to Ki for human carbonic anhydrase 9.
As to `C=C(Cl)CN(CC(=C)Cl)S(=O)(=O)c1ccc(N)cc1`, the Ratio Ki stood at 92.8.
On the same count and under the same terms, with `Nc1ccc(S(=O)(=O)NCCC(F)F)cc1` the figure was 2; with `CC(F)(F)CNS(=O)(=O)c1ccc(N)cc1`, 3.2.
In the case of `Nc1ccc(S(=O)(=O)NCCC(F)Cl)cc1` (configuration not stated), the Ratio Ki came to 2.7.
On to `C=CCNc1ccc(S(N)(=O)=O)cc1`, for which the Ratio Ki came to 1.5.
Still for that read-out and setting: with `CC(C)(F)CNS(=O)(=O)c1ccc(N)cc1` the figure was 2.1.
On to `C=C(C)CNS(=O)(=O)c1ccc(N)cc1`, for which the Ratio Ki was determined as 2.1.
Still for that read-out and setting: to `CC(=O)Nc1ccc(S(=O)(=O)NCC(C)F)cc1` (configuration not stated) belongs 1.1.
On the same count and under the same terms, with `CC(F)CNc1ccc(S(N)(=O)=O)cc1` (configuration not stated) the figure was 4.
Still for that read-out and setting: with `CCCNS(=O)(=O)c1ccc(N)cc1` the figure was 2.5; with `NS(=O)(=O)c1ccc(Nc2nc(Cl)nc(NCCO)n2)cc1`, 1460.
Consider `NS(=O)(=O)c1ccc2c(c1)CCCN2`, for which the Ratio Ki was determined as 3.8.
On the same count and under the same terms, to `CC1CN(C)S(=O)(=O)c2ccc(N)cc21` (configuration not stated) belongs 4.7; to `C=C(Cl)CNS(=O)(=O)c1ccc(N)cc1`, 62.
The same measure, in the same setting: with `CC(F)(Cl)CNS(=O)(=O)c1ccc(N)cc1` (configuration not stated) the figure was 2.1.

A further experiment concerns the target Carbonic anhydrase 12 (Homo sapiens, UniProt O43570). Nature of the experiment: Inhibition of human catalytic domain of carbonic anhydrase 12 preincubated for 15 mins by CO2 hydration stopped-flow assay.
`C=C(Cl)CN(CC(=C)Cl)S(=O)(=O)c1ccc(N)cc1`: affinity was put at a Ki of 79.8 nM.
`Nc1ccc(S(=O)(=O)NCCC(F)F)cc1` gave a Ki of 1140 nM.
Same read-out and setting: with `CC(F)(F)CNS(=O)(=O)c1ccc(N)cc1` the figure was 79.4 nM.
`Nc1ccc(S(=O)(=O)NCCC(F)Cl)cc1` (configuration not stated) came in with a Ki of 1950 nM.
For `C=CCNc1ccc(S(N)(=O)=O)cc1`, the Ki was 966 nM.
`CC(C)(F)CNS(=O)(=O)c1ccc(N)cc1` came in with a Ki of 39.7 nM.
On to `C=C(C)CNS(=O)(=O)c1ccc(N)cc1`, for which the Ki was found to be 1280 nM.
`CC(=O)Nc1ccc(S(=O)(=O)NCC(C)F)cc1` (configuration not stated): the affinity corresponds to a Ki of 1100 nM.
The same measure, in the same setting: to `CC(F)CNc1ccc(S(N)(=O)=O)cc1` (configuration not stated) belongs 73.9 nM; to `CCCNS(=O)(=O)c1ccc(N)cc1`, 1840 nM; to `NS(=O)(=O)c1ccc2c(c1)CCCN2`, 80.7 nM.
On the same count and under the same terms, to `CC1CN(C)S(=O)(=O)c2ccc(N)cc21` (configuration not stated) belongs 298 nM; to `C=C(Cl)CNS(=O)(=O)c1ccc(N)cc1`, 96 nM.
In turn, `CC(F)(Cl)CNS(=O)(=O)c1ccc(N)cc1` (configuration not stated) displayed a Ki of 1520 nM.

In another experiment the target is Carbonic anhydrase 9 (Homo sapiens, UniProt Q16790). Nature of the experiment: Inhibition of human catalytic domain of carbonic anhydrase 9 preincubated for 15 mins by CO2 hydration stopped-flow assay.
Turning to `C=C(Cl)CN(CC(=C)Cl)S(=O)(=O)c1ccc(N)cc1`, the affinity corresponds to a Ki of 73.2 nM.
Turning to `Nc1ccc(S(=O)(=O)NCCC(F)F)cc1`, the affinity, expressed as Ki, was 2120 nM.
On the same count and under the same terms, with `CC(F)(F)CNS(=O)(=O)c1ccc(N)cc1` the figure was 47 nM; with `Nc1ccc(S(=O)(=O)NCCC(F)Cl)cc1` (configuration not stated), 2470 nM; with `C=CCNc1ccc(S(N)(=O)=O)cc1`, 1400 nM.
Same read-out and setting: to `C=C(C)CNS(=O)(=O)c1ccc(N)cc1` belongs 3460 nM; to `CC(=O)Nc1ccc(S(=O)(=O)NCC(C)F)cc1` (configuration not stated), 4400 nM; to `CC(F)CNc1ccc(S(N)(=O)=O)cc1` (configuration not stated), 43.5 nM.
Compound `CCCNS(=O)(=O)c1ccc(N)cc1` displayed a Ki of 2080 nM.
Same read-out and setting: to `NS(=O)(=O)c1ccc2c(c1)CCCN2` belongs 50.5 nM; to `CC1CN(C)S(=O)(=O)c2ccc(N)cc21` (configuration not stated), 136 nM.
On the same count and under the same terms, with `C=C(Cl)CNS(=O)(=O)c1ccc(N)cc1` the figure was 90 nM; with `CC(F)(Cl)CNS(=O)(=O)c1ccc(N)cc1` (configuration not stated), 2470 nM.

Another experiment addresses Carbonic anhydrase 2 (Homo sapiens, UniProt P00918). The experiment can be described thus: Inhibition of human recombinant carbonic anhydrase 2 preincubated for 15 mins by CO2 hydration stopped-flow assay.
`C=C(Cl)CN(CC(=C)Cl)S(=O)(=O)c1ccc(N)cc1`: the Ki stood at 5000 nM.
On the same count and under the same terms, with `Nc1ccc(S(=O)(=O)NCCC(F)F)cc1` the figure was 4230 nM; with `Cc1ccc(S(=O)(=O)Nc2ccccc2)cc1`, 395 nM; with `CC(F)(F)CNS(=O)(=O)c1ccc(N)cc1`, 85.3 nM.
Same read-out and setting: with `Nc1ccc(S(=O)(=O)NCCC(F)Cl)cc1` (configuration not stated) the figure was 799 nM.
The same measure, in the same setting: to `C=CCNc1ccc(S(N)(=O)=O)cc1` belongs 2340 nM.
Consider `CC(C)(F)CNS(=O)(=O)c1ccc(N)cc1`, for which the Ki turned out to be 75 nM.
The same measure, in the same setting: to `C=C(C)CNS(=O)(=O)c1ccc(N)cc1` belongs 4710 nM.
Still for that read-out and setting: to `CC(=O)Nc1ccc(S(=O)(=O)NCC(C)F)cc1` (configuration not stated) belongs 4600 nM; to `CC(F)CNc1ccc(S(N)(=O)=O)cc1` (configuration not stated), 57.6 nM.
Same read-out and setting: to `CCCNS(=O)(=O)c1ccc(N)cc1` belongs 3460 nM; to `NS(=O)(=O)c1ccc2c(c1)CCCN2`, 78.9 nM.
In the case of `CC1CN(C)S(=O)(=O)c2ccc(N)cc21` (configuration not stated), the Ki was 431 nM.
Regarding `C=C(Cl)CNS(=O)(=O)c1ccc(N)cc1`, the Ki stood at 5180 nM.
Consider `CC(F)(Cl)CNS(=O)(=O)c1ccc(N)cc1` (configuration not stated), for which the Ki was determined as 1400 nM.

A further experiment deals with Carbonic anhydrase 1 (Homo sapiens, UniProt P00915). The experiment can be described thus: Inhibition of human recombinant carbonic anhydrase 1 preincubated for 15 mins by CO2 hydration stopped-flow assay.
Chain of Carbonic anhydrase 1 (P00915 whole entry): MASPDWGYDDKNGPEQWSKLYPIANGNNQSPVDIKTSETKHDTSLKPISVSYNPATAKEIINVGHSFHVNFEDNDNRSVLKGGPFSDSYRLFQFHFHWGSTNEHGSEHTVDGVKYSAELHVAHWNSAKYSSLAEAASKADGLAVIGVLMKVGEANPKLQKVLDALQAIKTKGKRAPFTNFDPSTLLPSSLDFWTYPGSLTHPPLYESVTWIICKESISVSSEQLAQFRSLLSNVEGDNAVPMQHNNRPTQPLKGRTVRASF
Regarding `C=C(Cl)CN(CC(=C)Cl)S(=O)(=O)c1ccc(N)cc1`, the Ki worked out at 6800 nM.
The same measure, in the same setting: to `Nc1ccc(S(=O)(=O)NCCC(F)F)cc1` belongs 4220 nM; to `Cc1ccc(S(=O)(=O)Nc2ccccc2)cc1`, 419 nM; to `CC(F)(F)CNS(=O)(=O)c1ccc(N)cc1`, 151 nM.
The same measure, in the same setting: to `Nc1ccc(S(=O)(=O)NCCC(F)Cl)cc1` (configuration not stated) belongs 6760 nM; to `C=CCNc1ccc(S(N)(=O)=O)cc1`, 2080 nM; to `CC(C)(F)CNS(=O)(=O)c1ccc(N)cc1`, 174 nM.
The same measure, in the same setting: with `C=C(C)CNS(=O)(=O)c1ccc(N)cc1` the figure was 7140 nM; with `CC(=O)Nc1ccc(S(=O)(=O)NCC(C)F)cc1` (configuration not stated), 4800 nM.
In the case of `CC(F)CNc1ccc(S(N)(=O)=O)cc1` (configuration not stated), the Ki came out at 175 nM.
On to `CCCNS(=O)(=O)c1ccc(N)cc1`, for which the Ki worked out at 5140 nM.
As for `NS(=O)(=O)c1ccc2c(c1)CCCN2`, the Ki was determined as 192 nM.
With `CC1CN(C)S(=O)(=O)c2ccc(N)cc21` (configuration not stated), the Ki came out at 637 nM.
The same measure, in the same setting: to `C=C(Cl)CNS(=O)(=O)c1ccc(N)cc1` belongs 5630 nM; to `CC(F)(Cl)CNS(=O)(=O)c1ccc(N)cc1` (configuration not stated), 5180 nM.
